In patent publication US20010014347A1, “WETTABLE OR WATER-SOLUBLE GRANULAR AGROCHEMICAL COMPOSITION” (priority 1997, published 2001):

Assay: Solubility in water
Format: physicochemical
Settings: water at 20° C.

SMILES: CN/C(=N\[N+](=O)[O-])NCc1cnc(Cl)s1 [compound (II)]
- solubility: ≤ 300 µg/mL
